From patent US20160016958A1, “Method of Labeling Flumazenil with F-18 and Separating and Purifying F-18-Flumazenil” (Institute of Nuclear Energy Research, Atomic Energy …, priority 2014, published 2016)

Test: lipophilicity test, octanol/PBS partition with gamma counter
Assay type: physicochemical

## CCOC(=O)c1ncn2c1CN(C)C(=O)c1cc([18F])ccc1-2 [F-18-flumazenil]
  log P value: 1.49±0.12
